Where two headings read alike, the source gives them in different places. Each block holds one compound with its values, some of them ahead of it.
Legend:
[1] = tested on: serum cholesterol, ovariectomized rats; assay: Serum cholesterol in ovariectomized rats (4 days daily oral dosing); assay type: in vivo, rat (female Sprague Dawley); conditions: Rattus norvegicus, 96 h, read-out: Serum Cholesterol (% decrease vs. OVX); for inhibition in vivo at 0.1 mg/kg: 0.1 mg/kg PO; for inhibition in vivo at 1 mg/kg: 1.0 mg/kg PO; for inhibition in vivo at 10 mg/kg: 10.0 mg/kg PO
Protocol: (§1) In the examples illustrating the methods, a postmenopausal model was used in which effects of different treatments upon circulating lipids were determined.
(§2) Seventy-five day old female Sprague Dawley rats (weight range of 200 to 225 g) were obtained from Charles River Laboratories (Portage, Mich.). The animals were either bilaterally ovariectomized (OVX) or exposed to a Sham surgical procedure at Charles River Laboratories, and then shipped after one week. Upon arrival, they were housed in metal hanging cages in groups of 3 or 4 per cage and had ad libitum access to food (calcium content approximately 0.5%) and water for one week. Room temperature was maintained at 22.2°±1.70° C. with a minimum relative humidity of 40%. The photoperiod in the room was 12 hours light and 12 hours dark.
(§3) After a one week acclimation period (therefore, two weeks post-OVX) daily dosing with test compound was initiated. […] Animals were dosed daily for 4 days. Following the dosing regimen, animals were weighed and anesthetized with a ketamine: Xylazine (2:1, V:V) mixture and a blood sample was collected by cardiac puncture. The animals were then sacrificed by asphyxiation with CO2, the uterus was removed through a midline incision, and a wet uterine weight was determined.
Blood samples were allowed to clot at room temperature for 2 hours, and serum was obtained following centrifugation for 10 minutes at 3000 rpm. Serum cholesterol was determined using a Boehringer Mannheim Diagnostics high performance cholesterol assay. Briefly the cholesterol was oxidized to cholest-4-en-3-one and hydrogen peroxide. The hydrogen peroxide was then reacted with phenol and 4-aminophenazone in the presence of peroxidase to produce a p-quinone imine dye, which was read spectrophotemetrically at 500 nm. Cholesterol concentration was then calculated against a standard curve. The entire assay was automated using a Biomek Automated Workstation. […]
(§4) The data presented in Table 1 below reflects the response of 5 to 6 rats per treatment.

[2] = tested on: uterus, ovariectomized rats; assay: Uterine weight in ovariectomized rats (4 days daily oral dosing); assay type: in vivo, rat (female Sprague Dawley); conditions: Rattus norvegicus, 96 h, read-out: Uterine weight (% increase vs. OVX); for change in vivo at 0.1 mg/kg: 0.1 mg/kg PO; for change in vivo at 1 mg/kg: 1.0 mg/kg PO; for change in vivo at 10 mg/kg: 10.0 mg/kg PO
Protocol: as §1, §2, §3
This uterine response to estrogen is well recognized in the art.
as §4

[3] = tested on: MCF-7 breast adenocarcinoma cells; assay: MCF-7 Proliferation Assay (tritiated thymidine); assay type: cell-based
Protocol: MCF-7 breast adenocarcinoma cells (ATCC HTB 22) were maintained in MEM (minimal essential medium, phenol red-free, Sigma, St. Louis, Mo.) supplimented with 10% fetal bovine serum (FBS) (V/V), L-glutamine (2 mM), sodium pyruvate (1 mM), HEPES {(N-[2-hydroxyethyl]piperazine-N'-[2-ethanesulfonic acid]10 mM}, non-essential amino acids and bovine insulin (1 ug/mL) (maintenance medium). Ten days prior to assay, MCF-7 cells were switched to maintenance medium supplemented with 10% dextran coated charcoal stripped fetal bovine serum (DCC-FBS) assay medium) in place of 10% FBS to deplete internal stores of steroids. MCF-7 cells were removed from maintenance flasks using cell dissociation medium (Ca++/Mg++ free HBSS (phenol red-free) supplemented with 10 mM HEPES and 2 mM EDTA). Cells were washed twice with assay medium and adjusted to 80,000 cells/mL. Approximately […] (8,000 cells) were added to flat-bottom microculture wells (Costar 3596) and incubated at 37° C. in a 5% CO2 humidified incubator for 48 hours to allow for cell adherence and equilibration after transfer. Serial dilutions of drugs or DMSO as a diluent control were prepared in assay medium and […] to triplicate microcultures followed by […] assay medium for a final volume of […]. After an additional 48 hours at 37° C. in a 5% CO2 humidified incubator, microcultures were pulsed with tritiated thymidine (1 uCi/well) for 4 hours. Cultures were terminated by freezing at -70° C. for 24 hours followed by thawing and harvesting of microcultures using a Skatron Semiautomatic Cell Harvester. Samples were counted by liquid scintillation using a Wallac BetaPlace b counter. Results in Table 4 below show the IC50 for certain compounds of the instant invention. […]

[4] = tested on: Uterine Eosinophil Peroxidase (EPO); assay: Uterine Eosinophil Peroxidase (EPO) Assay in ovariectomized rats; assay type: in vivo, rat (female Sprague Dawley); parameters: Uterine EPO (Vmax): unit not given here
From the text: as §2, §3
Uteri were kept at 4° C. until time of enzymatic analysis. The uteri were then homogenized in 50 volumes of 50 mM Tris buffer (pH-8.0) containing 0.005% Triton X-100. Upon addition of 0.01% hydrogen peroxide and 10 mM O-phenylenediamine (final concentrations) in Tris buffer, increase in absorbance was monitored for one minute at 450 nm. The presence of eosonophils in the uterus is an indication of estrogenic activity of a compound. The maximal velocity of a 15 second interval was determined over the initial, linear portion of the reaction curve.
As is expressed in the data below, estrogenicity also was assessed by evaluating the adverse response of eosinophil infiltration into the uterus.
as §4

[5] = Homo sapiens, MCF7, 48 hours, read-out: IC50

Compound: COc1ccc2c(C(=O)c3ccc(OCCN4CCCCC4)cc3)c(-c3ccc(OC)c(OC)c3)sc2c1 [Example 8, [2-(3,4-Dimethoxyphenyl)-6-methoxybenzo[b]thien-3-yl][4-[2-(1-piperidinyl)ethoxy]phenyl]methanone]
inhibition in vivo at 0.1 mg/kg [1]: 24.8% | inhibition in vivo at 1 mg/kg [1]: 57.8% | inhibition in vivo at 10 mg/kg [1]: 60.8% | change in vivo at 0.1 mg/kg [2]: -8.3% | change in vivo at 1 mg/kg [2]: 23.4% | change in vivo at 10 mg/kg [2]: 24.1% | Uterine EPO (Vmax) ([4]; 0.1 mg/kg PO): 1.3 | Uterine EPO (Vmax) ([4]; 1.0 mg/kg PO): 4.4 | Uterine EPO (Vmax) ([4]; 10.0 mg/kg PO): 11.2

Compound: O=C(Oc1cccc(-c2sc3cc(OC(=O)c4ccccc4)ccc3c2C(=O)c2ccc(OCCN3CCCCC3)cc2)c1)c1ccccc1 [Example 13, [2-(3-Benzoyloxyphenyl)-6-benzoyloxybenzo[b]thien-3-yl][4-[2-(1-piperidinyl)ethoxy]phenyl]methanone]
inhibition in vivo at 0.1 mg/kg [1]: 25.3% | inhibition in vivo at 1 mg/kg [1]: 45.7% | inhibition in vivo at 10 mg/kg [1]: 61.4% | change in vivo at 0.1 mg/kg [2]: -18.6% | change in vivo at 1 mg/kg [2]: 34.7% | change in vivo at 10 mg/kg [2]: 27.6% | Uterine EPO (Vmax) ([4]; 0.1 mg/kg PO): 3.0 | Uterine EPO (Vmax) ([4]; 1.0 mg/kg PO): 6.0 | Uterine EPO (Vmax) ([4]; 10.0 mg/kg PO): 8.4

Compound: Cc1cc(O)ccc1-c1sc2cc(O)ccc2c1C(=O)c1ccc(OCCN2CCCCC2)cc1 [Example 16, [2-(2-Methyl-4-hydroxyphenyl)-6-hydroxybenzo[b]thien-3-yl][4-[2-(1-piperidinyl)ethoxy]phenyl]methanone]
inhibition in vivo at 0.1 mg/kg [1]: 39.2% | inhibition in vivo at 1 mg/kg [1]: 62.6% | inhibition in vivo at 10 mg/kg [1]: 68.5% | change in vivo at 0.1 mg/kg [2]: 54.5% | change in vivo at 1 mg/kg [2]: 53.7% | change in vivo at 10 mg/kg [2]: 62.7% | IC50 [3, 5]: 2 nM | Uterine EPO (Vmax) ([4]; 0.1 mg/kg PO): 8.1 | Uterine EPO (Vmax) ([4]; 1.0 mg/kg PO): 8.4 | Uterine EPO (Vmax) ([4]; 10.0 mg/kg PO): 8.1

Compound: COc1ccc(-c2sc3cc(OC)ccc3c2C(=O)c2ccc(OCCN3CCCCC3)cc2)c(OC)c1 [Example 17, [2-(2,4-Dimethoxyphenyl)-6-methoxybenzo[b]thien-3-yl] [4-[2-(1-piperidinyl)ethoxy]phenyl]methanone]
inhibition in vivo at 0.1 mg/kg [1]: 51.4% | inhibition in vivo at 1 mg/kg [1]: 68.5% | inhibition in vivo at 10 mg/kg [1]: 67.2% | change in vivo at 0.1 mg/kg [2]: 40.1% | change in vivo at 1 mg/kg [2]: 66.1% | change in vivo at 10 mg/kg [2]: 53.7% | IC50 [3, 5]: 300 nM | Uterine EPO (Vmax) ([4]; 0.1 mg/kg PO): 20.4 | Uterine EPO (Vmax) ([4]; 1.0 mg/kg PO): 102.0 | Uterine EPO (Vmax) ([4]; 10.0 mg/kg PO): 20.1

Compound: COc1cc(O)ccc1-c1sc2cc(O)ccc2c1C(=O)c1ccc(OCCN2CCCCC2)cc1 [Example 18, [2-(4-Hydroxy-2-methoxyphenyl)-6-hydroxybenzo[b]thien-3-yl] [4-[2-(1-piperidinyl)ethoxy]phenyl]methanone]
inhibition in vivo at 0.1 mg/kg [1]: 58.8% | inhibition in vivo at 1 mg/kg [1]: 79% | inhibition in vivo at 10 mg/kg [1]: 71.6% | change in vivo at 0.1 mg/kg [2]: 64.1% | change in vivo at 1 mg/kg [2]: 69.2% | change in vivo at 10 mg/kg [2]: 73.3% | IC50 [3, 5]: 2 nM | Uterine EPO (Vmax) ([4]; 0.1 mg/kg PO): 34.2 | Uterine EPO (Vmax) ([4]; 1.0 mg/kg PO): 81.9 | Uterine EPO (Vmax) ([4]; 10.0 mg/kg PO): 135.9

Compound: C[C@]12CC[C@@H]3c4ccc(O)cc4CC[C@H]3[C@@H]1CC[C@@H]2O [estradiol, reference compound]
eosinophil infiltration into the uterus (in words) ([4]; stromal layer of ovariectomized rats): substantial, expected increase in eosinophil infiltration

Further lines, with some results ahead:

IC50 [3, 5]: 2.3 nM
Compound: O=C(c1ccc(OCCN2CCCCC2)cc1)c1c(-c2ccc(O)c(Cl)c2)sc2cc(O)ccc12 [Example 5, [2-(3-Chloro-4-hydroxyphenyl)-6-hydroxybenzo[b]thien-3-yl][4-[2-(1-piperidinyl)ethoxy]phenyl]methanone]
inhibition in vivo at 0.1 mg/kg [1]: 18.6% | inhibition in vivo at 1 mg/kg [1]: 52.6% | inhibition in vivo at 10 mg/kg [1]: 71.5% | change in vivo at 0.1 mg/kg [2]: -22.6% | change in vivo at 1 mg/kg [2]: 20.7% | change in vivo at 10 mg/kg [2]: 30.2% | Uterine EPO (Vmax) ([4]; 0.1 mg/kg PO): 1.2 | Uterine EPO (Vmax) ([4]; 1.0 mg/kg PO): 2.4 | Uterine EPO (Vmax) ([4]; 10.0 mg/kg PO): 1.3

IC50 [3, 5]: 1 nM
Compound: Cc1cc(-c2sc3cc(O)ccc3c2C(=O)c2ccc(OCCN3CCCCC3)cc2)ccc1O [Example 7, [2-(3-Methyl-4-hydroxyphenyl)-6-hydroxybenzo[b]thien-3-yl][4-[2-(1-piperidinyl)ethoxy]phenyl]methanone]
inhibition in vivo at 0.1 mg/kg [1]: 53.7% | inhibition in vivo at 1 mg/kg [1]: 77.6% | inhibition in vivo at 10 mg/kg [1]: 49.7% | change in vivo at 0.1 mg/kg [2]: 7.6% | change in vivo at 1 mg/kg [2]: 15.6% | change in vivo at 10 mg/kg [2]: 24.6% | Uterine EPO (Vmax) ([4]; 0.1 mg/kg PO): 4.9 | Uterine EPO (Vmax) ([4]; 1.0 mg/kg PO): 2.5 | Uterine EPO (Vmax) ([4]; 10.0 mg/kg PO): 2.8

IC50 [3, 5]: 10 nM
Compound: O=C(c1ccc(OCCN2CCCCC2)cc1)c1c(-c2ccccc2O)sc2cc(O)ccc12 [Example 10, [2-(2-Hydroxyphenyl)-6-hydroxybenzo[b]thien-3-yl][4-[2-(1-piperidinyl)ethoxy]phenyl]methanone]
inhibition in vivo at 0.1 mg/kg [1]: 7.8% | inhibition in vivo at 1 mg/kg [1]: 19.5% | inhibition in vivo at 10 mg/kg [1]: 33.2% | change in vivo at 0.1 mg/kg [2]: -18.3% | change in vivo at 1 mg/kg [2]: -21% | change in vivo at 10 mg/kg [2]: 10.6% | Uterine EPO (Vmax) ([4]; 0.1 mg/kg PO): 2.8 | Uterine EPO (Vmax) ([4]; 1.0 mg/kg PO): 1.7 | Uterine EPO (Vmax) ([4]; 10.0 mg/kg PO): 3.7

IC50 ([3]; 48 hours): Not active
Compound: COc1ccc2c(C(=O)c3ccc(OCCN4CCCCC4)cc3)c(-c3ccc(C(F)(F)F)cc3)sc2c1 [Example 19, [2-(4-Trifluoromethylphenyl)-6-methoxybenzo[b]thien-3-yl][4-[2-(1-piperidinyl)ethoxy]phenyl]methanone]
inhibition in vivo at 0.1 mg/kg [1]: 22.3% | inhibition in vivo at 1 mg/kg [1]: 3.1% | inhibition in vivo at 10 mg/kg [1]: 20.6% | change in vivo at 0.1 mg/kg [2]: 10.3% | change in vivo at 1 mg/kg [2]: 15.6% | change in vivo at 10 mg/kg [2]: 16.6% | Uterine EPO (Vmax) ([4]; 0.1 mg/kg PO): 6.8 | Uterine EPO (Vmax) ([4]; 1.0 mg/kg PO): 4.3 | Uterine EPO (Vmax) ([4]; 10.0 mg/kg PO): 4

IC50 [3, 5]: 1000 nM
Compound: O=C(c1ccc(OCCN2CCCCC2)cc1)c1c(-c2ccc(C(F)(F)F)cc2)sc2cc(O)ccc12 [Example 20, [2-(4-Trifluoromethylphenyl)-6-hydroxybenzo[b]thien-3-yl][4-[2-(1-piperidinyl)ethoxy]phenyl]methanone]
inhibition in vivo at 0.1 mg/kg [1]: 45.5% | inhibition in vivo at 1 mg/kg [1]: 47.9% | inhibition in vivo at 5 mg/kg ([1]; 5.0 mg/kg PO): 71.5% | change in vivo at 0.1 mg/kg [2]: -2% | change in vivo at 1 mg/kg [2]: 7% | change in vivo at 5 mg/kg ([2]; 5.0 mg/kg PO): 37.4% | Uterine EPO (Vmax) ([4]; 0.1 mg/kg PO): 1.8 | Uterine EPO (Vmax) ([4]; 1.0 mg/kg PO): 7 | Uterine EPO (Vmax) ([4]; 5.0 mg/kg PO): 16.4

Source: patent US5998442A, “Benzo [B] thiophene compounds, and compositions for treating bone loss, and hyperlipidemia” (Eli Lilly and Company, priority 1997, dated 1999)
